Values quoted from earlier work, collected in publication PMC2692938 (Nuclear medicine and biology, 2009).

Tested on: αvβ3
Conditions: selective αvβ3 antagonist

c(RGDfV)
IC50 values: lower nanomolar range
